Laboratory results: US20080269298A1, “Benzimidazol-1-YL-thiophene compounds for the treatment of cancer” (priority 2002, published 2008)

Assays:
PLK1 kinase domain = target: T1, PLK1 kinase domain (Homo sapiens, UniProt P53350); assay: Assay for Inhibition of PLK1 (SPA enzyme activity); type: biochemical; details: 2 μM ATP, read-out: Ave pIC50 PLK Enzyme Inhibition (converted)
T1 construct: made in house; host or cells: baculovirus-infected T. ni insect cells
Method: All procedures were performed at 4° C. Cells were lysed in so mM HEPES, 200 mM NaCl, so mM imidazole, 5% glycerol; pH 7.5. The homogenate was centrifuged at 14K rpm in a SLA-1500 rotor for 1 hr and the supernatant filtered through a 1.2 micron filter. The supernatant was loaded onto a Nickel chelating Sepharose (Amersham Pharmacia) column and washed with lysis buffer. Protein was eluted using 20%, 30% and 100% buffer B steps where buffer B is 50 mM HEPES, 200 mM NaCl, 300 mM imidazole, 5% glycerol; pH 7.5. Fractions containing PLK were determined by SDS-PAGE. Fractions containing PLK were diluted five-fold with so mM HEPES, 1 mM DTT, 5% glycerol; pH 7.5, then loaded on an SP Sepharose (Amersham Pharmacia) column. After washing the column with so mM HEPES, 1 mM DTT, 5% glycerol; pH 7.5, PLK was step eluted with so mM HEPES, 1 mM DTT, 500 mM NaCl; 5% glycerol; pH 7.5. PLK was concentrated using a 10 kDa molecular weight cutoff membrane and then loaded onto a Superdex 200 gel filtration (Amersham Pharmacia) column equilibrated in 25 mM HEPES, 1 mM DTT, 500 mM NaCl, 5% glycerol; pH 7.5. Fractions containing PLK were determined by SDS-PAGE. PLK was pooled, aliquoted and stored at −80° C. Samples were quality controlled using mass spectrometry, N-terminal sequencing and amino acid analysis.
B. Enzyme activity+/−inhibitors was determined as follows:
Compounds were added to the plate (1 μl in […]). […] Reaction Mix B is prepared as follows at 4° C.: • Reaction Mix B (Enzyme Mix) • 25 mM HEPES, pH 7.2 • 15 mM MgCl2 • 0.15 mg/ml BSA • 2 mM DTT • 2-10 nM PLK1 kinase domain
Reaction Mix A (20 μl) is added per well. Reaction Mix B (20 μl) is added per well. Incubate 1.5 hrs. at RT. The enzymatic reaction is stopped with 175 μl of SPA/EDTA bead mix (29 mM EDTA, 2.5 mg/ml Streptavidin-coated SPA in Standard Dulbecco's PBS (without Mg^2+ and Ca^2+), 60 μM ATP). Plates are sealed spun (after a 1 hr incubation at RT) at 1,000×g for 7 min or settled overnight, then plates counted in Packard TopCount for 30 seconds/well.

[1] = test system: Normal Human foreskin fibroblasts (HFF); assay: Methylene Blue Growth Inhibition Assay, HFF; type: cell-based; details: 72 h, Cell Line HFF, 3 days, read-out: MeB IC50
Method: (§1) Normal Human foreskin fibroblasts (HFF) and human colon (HCT116, RKO), lung (H460), prostate (PC3), and breast tumor (MCF7) cell lines were cultured in high glucose DMEM (Life Technologies) containing 10% fetal bovine serum (FBS) at 37° C. in a humidified 10% CO2, 90% air incubator. Cells were harvested using trypsin/EDTA, counted using a haemocytometer, and plated in 100 μl of the appropriate media, at the following densities, in a 96-well tissue culture plate (Falcon 3075): HFF 5,000 cells/well, HCT116 3,000 cells/well, RKO 2,500 cells/well, H460 2,000 cells/well, PC3 8,000 cells/well, MCF7 4,000 cells/well. The next day, compounds were diluted in DMEM containing 100 μg/ml gentamicin, at twice the final required concentration, from 10 mM stock solutions in DMSO. 100μ/well of these dilutions were added to the 100 μl of media currently on the cell plates. Medium containing 0.6% DMSO was added to control wells. Compounds diluted in DMEM were added to all cell lines. The final concentration of DMSO in all wells was 0.3%. Cells were incubated at 37° C., 10% CO2 for 3 days. Medium was removed by aspiration. Cell biomass was estimated by staining cells with […] per well methylene blue (Sigma M9140, 0.5% in 50:50 ethanol:water), and incubation at room temperature for at least 30 minutes. Stain was removed, and the plates rinsed under a gentle stream of water, and air-dried. To release stain from the cells 100 μl of solubilization solution was added (1% N-lauroyl sarcosine, Sodium salt, Sigma L5125, in PBS), and plates were shaken gently for about 30 minutes. Optical density at 620 nm was measured on a microplate reader. Percent inhibition of cell growth was calculated relative to vehicle treated control wells. Concentration of compound that inhibits 50% of cell growth (IC50) was interpolated using nonlinear regression (Levenberg-Marquardt) and the equation, y=Vmax*(1-(x/(K+x)))+Y2, where “K” was equal to the IC50. In Table 1, +=10−>30 uM; ++=1−10 uM: +++=<1 uM.

[2] = test system: breast tumor (MCF7) cell line; assay: Methylene Blue Growth Inhibition Assay, MCF7; type: cell-based; details: Homo sapiens, 72 h; Cell Line MCF7, 3 days; read-out: MeB IC50
Method: as §1

[3] = test system: prostate (PC3) tumor cell line; assay: Methylene Blue Growth Inhibition Assay, PC3; type: cell-based; details: Homo sapiens, 72 h; Cell Line PC3, 3 days; read-out: MeB IC50
Method: as §1

[4] = test system: lung (H460) tumor cell line; assay: Methylene Blue Growth Inhibition Assay, H460; type: cell-based; details: Homo sapiens, NCI-H460, 72 h; Cell Line H460, 3 days; read-out: MeB IC50
Method: as §1

[5] = test system: colon (HCT116) tumor cell line; assay: Methylene Blue Growth Inhibition Assay, HCT116; type: cell-based; details: Homo sapiens, HCT-116, 72 h; Cell Line HCT116, 3 days; read-out: MeB IC50
Method: as §1

[6] = test system: colon (RKO) tumor cell line; assay: Methylene Blue Growth Inhibition Assay, RKO; type: cell-based; details: Homo sapiens, 72 h, 3 days, read-out: MeB IC50
Method: as §1

T1 sequence (P53350 21-346): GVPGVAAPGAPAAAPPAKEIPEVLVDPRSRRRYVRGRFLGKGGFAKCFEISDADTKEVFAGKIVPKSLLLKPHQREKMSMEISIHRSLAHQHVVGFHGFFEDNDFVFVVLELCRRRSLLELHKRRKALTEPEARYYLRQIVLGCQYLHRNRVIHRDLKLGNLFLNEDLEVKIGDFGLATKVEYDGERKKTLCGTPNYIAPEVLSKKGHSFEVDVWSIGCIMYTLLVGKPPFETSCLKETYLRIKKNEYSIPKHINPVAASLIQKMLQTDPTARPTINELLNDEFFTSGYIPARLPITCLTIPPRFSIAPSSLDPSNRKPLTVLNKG

Row | IC50 (PLK1 kinase domain) | IC50 [2] | IC50 [3] | IC50 [4] | IC50 [5] | IC50 [6] | Structure (SMILES) | IC50 [1]
1 | < 0.1 µM | 1 to 10 µM | > 10 µM | 1 to 10 µM | 1 to 10 µM | 1 to 10 µM | C=Cc1ccccc1COc1cc(-n2cnc3cc(OC)c(OC)cc32)sc1C(N)=O [Example 103, 5-(5,6-Dimethoxy-1H-benzimidazol-1-yl)-3-[(2-vinylbenzyl)oxy]thiophene-2-carboxamide] | > 10 µM
2 | < 0.1 µM | 1 to 10 µM | 1 to 10 µM | 1 to 10 µM | 1 to 10 µM | 1 to 10 µM | COc1cc2ncn(-c3cc(OCc4ccccc4SC)c(C(N)=O)s3)c2cc1OC [Example 97] | 1 to 10 µM
3 | < 0.1 µM | 1 to 10 µM | > 10 µM | 1 to 10 µM | 1 to 10 µM | 1 to 10 µM | COc1cc2ncn(-c3cc(OCc4cccc(N)c4)c(C(N)=O)s3)c2cc1OC [Example 96, 3-[(3-Aminobenzyl)oxy]-5-(5,6-dimethoxy-1H-benzimidazol-1-yl)thiophene-2-carboxamide] | > 10 µM
4 | < 0.1 µM | > 10 µM | > 10 µM | > 10 µM | > 10 µM | > 10 µM | COc1cc2ncn(-c3cc(OCc4ccnc(N)c4)c(C(N)=O)s3)c2cc1OC [Example 100, 3-[(2-Aminopyridin-4-yl)methoxy]-5-(5,6-dimethoxy-1H-benzimidazol-1-yl)thiophene-2-carboxamide] | > 10 µM
5 | < 0.1 µM | 1 to 10 µM | 1 to 10 µM | 1 to 10 µM | < 1 µM | < 1 µM | COc1cc2ncn(-c3cc(OCc4ccccc4C=O)c(C(N)=O)s3)c2cc1OC [Example 110, 5-(5,6-Dimethoxy-1H-benzimidazol-1-yl)-3-[(2-formylbenzyl)oxy]thiophene-2-carboxamide] | > 10 µM
6 | < 0.1 µM | 1 to 10 µM | > 10 µM | 1 to 10 µM | 1 to 10 µM | 1 to 10 µM | COc1cc2ncn(-c3cc(OCc4ccccc4C#N)c(C(N)=O)s3)c2cc1OC [Example 95, 3-[(2-Cyanobenzyl)oxy]-5-(5,6-dimethoxy-1H-benzimidazol-1-yl)thiophene-2-carboxamide] | > 10 µM

The next lines start with the molecule.

Row | Structure (SMILES) | IC50 (PLK1 kinase domain) | IC50 [2] | IC50 [3] | IC50 [4] | IC50 [5] | IC50 [6] | IC50 [1]
7 | NC(=O)c1sc(-n2cnc3ccccc32)cc1CCc1ccccc1 [Example 130, 5-(1H-Benzimidazol-1-yl)-3-(2-phenylethyl)thiophene-2-carboxamide] | 0.1 to 10 µM | 1 to 10 µM | > 10 µM | > 10 µM | 1 to 10 µM | 1 to 10 µM | > 10 µM
8 | COc1ccc2ncn(-c3cc(OCc4ccccc4C(F)(F)F)c(C(N)=O)s3)c2c1 [Example 118] | < 0.1 µM | < 1 µM | > 10 µM | < 1 µM | 1 to 10 µM | < 1 µM | 1 to 10 µM
9 | COc1cc2ncn(-c3cc(OCc4ccccc4C(F)(F)F)c(C(N)=O)s3)c2cc1OC [Example 63, 5-(5,6-Dimethoxy-1H-benzimidazol-1-yl)-3-{[2-(trifluoromethyl)-benzyl]oxy}thiophene-2-carboxamide] | < 0.1 µM | < 1 µM | 1 to 10 µM | < 1 µM | < 1 µM | < 1 µM | 1 to 10 µM
10 | NC(=O)c1sc(-n2cnc3cc(C(=O)NCCN4CCNC4=O)ccc32)cc1OCc1ccccc1C(F)(F)F [Example 156, 1-(5-(Aminocarbonyl)-4-{[2-(trifluoromethyl)benzyl]oxy}thien-2-yl)-N-[2-(2-oXoimidazolidin-1-yl)ethyl]-1H-benzimidazole-5-carboxamide] | < 0.1 µM | > 10 µM | > 10 µM | > 10 µM | > 10 µM | > 10 µM | > 10 µM
11 | O=C(O)c1sc(-n2cnc3ccc(Cl)cc32)cc1OCc1cccnc1 [Example 72, 5-(6-Chloro-1H-benzimidazol-1-yl)-3-(pyridin-3-ylmethoxy)thiophene-2-carboxylic acid] | < 0.1 µM | > 10 µM | > 10 µM | > 10 µM | > 10 µM | > 10 µM | > 10 µM
12 | O=C(O)c1sc(-n2cnc3cc(Cl)c(Cl)cc32)cc1OCc1ccsc1 [Example 79] | < 0.1 µM | > 10 µM | > 10 µM | > 10 µM | > 10 µM | > 10 µM | > 10 µM
13 | NC(=O)c1sc(-n2cnc3ccc(OCCN4CCOCC4)cc32)cc1OCc1ccccc1C(F)(F)F [Example 138, 5-[6-(2-Morpholin-4-ylethoxy)-1H-benzimidazol-1-yl]-3-{[2-(trifluoromethyl)benzyl]oxy}thiophene-2-carboxamide] | < 0.1 µM | 1 to 10 µM | > 10 µM | < 1 µM | 1 to 10 µM | < 1 µM | 1 to 10 µM
14 | CS(=O)(=O)Nc1ccc2ncn(-c3cc(OCc4ccccc4C(F)(F)F)c(C(N)=O)s3)c2c1 [Example 122, 5-{6-[(Methylsulfonyl)amino]-1H-benzimidazol-1-yl}-3-{[2-(trifluoromethyl)benzyl]-oxy}thiophene-2-carboxamide] | < 0.1 µM | 1 to 10 µM | > 10 µM | 1 to 10 µM | 1 to 10 µM | 1 to 10 µM | > 10 µM
15 | NC(=O)c1sc(-n2cnc3cc(F)c(OCCN4CCOCC4)cc32)cc1OCc1ccccc1C(F)(F)F [Example 140, 5-[5-Fluoro-6-(2-morpholin-4-ylethoxy)-1H-benzimidazol-1-yl]-3-{[2-(trifluoromethyl)benzyl]oxy}thiophene-2-carboxamide] | < 0.1 µM | 1 to 10 µM | 1 to 10 µM | 1 to 10 µM | 1 to 10 µM | < 1 µM | > 10 µM
16 | NC(=O)c1sc(-n2cnc3cc4c(cc32)OCCCO4)cc1OCc1ccccc1C(F)(F)F [Example 89] | < 0.1 µM | 1 to 10 µM | > 10 µM | 1 to 10 µM | 1 to 10 µM | 1 to 10 µM | > 10 µM
